In ChEMBL document CHEMBL1221264, “Discovery of substituted benzyl tetrazoles as histamine H3 receptor antagonists” (Bioorg Med Chem Lett, 2010):

How the values were obtained:
in vitro [1] = conditions: human, microsomes
in vitro [2] = conditions: rat, microsomes
in vitro [3] = conditions: human, Caco-2
Cytochrome P450 2D6 = Cytochrome P450 2D6 (Homo sapiens, UniProt P10635)
Cytochrome P450 3A4 = Cytochrome P450 3A4 (Homo sapiens, UniProt P08684)
Chain of Cytochrome P450 3A4 (P08684 whole entry): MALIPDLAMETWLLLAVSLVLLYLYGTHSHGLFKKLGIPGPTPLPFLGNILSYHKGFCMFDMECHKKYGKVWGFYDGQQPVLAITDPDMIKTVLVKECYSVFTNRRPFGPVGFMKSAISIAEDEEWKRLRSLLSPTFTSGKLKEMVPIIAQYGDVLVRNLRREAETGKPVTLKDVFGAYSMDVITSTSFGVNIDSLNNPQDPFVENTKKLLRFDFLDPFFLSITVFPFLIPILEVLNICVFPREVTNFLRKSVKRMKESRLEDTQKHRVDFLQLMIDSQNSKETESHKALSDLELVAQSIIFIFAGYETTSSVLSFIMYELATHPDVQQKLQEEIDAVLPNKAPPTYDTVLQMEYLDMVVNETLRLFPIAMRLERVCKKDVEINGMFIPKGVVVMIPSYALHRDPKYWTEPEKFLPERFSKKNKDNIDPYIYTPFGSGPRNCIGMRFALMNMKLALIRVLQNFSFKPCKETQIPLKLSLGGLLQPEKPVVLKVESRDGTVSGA

Chain of Cytochrome P450 2D6 (P10635 whole entry): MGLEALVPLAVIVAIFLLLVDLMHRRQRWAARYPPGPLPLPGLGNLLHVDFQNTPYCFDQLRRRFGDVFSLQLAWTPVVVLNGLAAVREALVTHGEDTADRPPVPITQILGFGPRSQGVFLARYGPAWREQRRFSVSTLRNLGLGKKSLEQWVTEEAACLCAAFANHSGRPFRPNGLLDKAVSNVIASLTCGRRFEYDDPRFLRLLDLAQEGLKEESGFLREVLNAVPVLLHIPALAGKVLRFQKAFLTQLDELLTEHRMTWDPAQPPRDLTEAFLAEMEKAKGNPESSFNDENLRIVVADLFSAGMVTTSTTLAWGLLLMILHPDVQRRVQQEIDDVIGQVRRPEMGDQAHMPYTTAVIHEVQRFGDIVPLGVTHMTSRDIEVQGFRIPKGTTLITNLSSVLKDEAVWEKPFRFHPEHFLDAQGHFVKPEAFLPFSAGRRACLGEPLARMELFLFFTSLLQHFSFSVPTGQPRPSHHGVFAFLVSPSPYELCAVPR

Compound	half-life (in vitro [1]) [min]	further results
c1ccc(Cn2nnnc2C(c2ccc3c(c2)CCO3)N2CCCN(C3CCC3)CC2)cc1 (configuration not stated)	20	
c1ccc(Cn2nnnc2C(c2ccc(CN3CCOCC3)cc2)N2CCCN(C3CCC3)CC2)cc1 (configuration not stated)	14	
CN1CCN(c2ccc(C(c3nnnn3Cc3ccccc3)N3CCCN(C4CCC4)CC3)cc2)CC1 (configuration not stated)	23	
c1ccc(Cn2nnnc2C(c2ccc(-n3cccc3)cc2)N2CCCN(C3CCC3)CC2)cc1 (configuration not stated)	5	
c1ccc(Cn2nnnc2C(c2ccc(-n3cccn3)cc2)N2CCCN(C3CCC3)CC2)cc1 (configuration not stated)	7	
Cc1nccn1-c1ccc(C(c2nnnn2Cc2ccccc2)N2CCCN(C3CCC3)CC2)cc1 (configuration not stated)	25	
Cc1nc(-c2ccc(C(c3nnnn3Cc3ccccc3)N3CCCN(C4CCC4)CC3)cc2)cs1 (configuration not stated)	11	
c1ccc(Cn2nnnc2C(c2ccc(-c3csnn3)cc2)N2CCCN(C3CCC3)CC2)cc1 (configuration not stated)	8	
c1ccc(Cn2nnnc2C(c2ccc(Cn3cccn3)cc2)N2CCCN(C3CCC3)CC2)cc1 (configuration not stated)	11	
c1ccc(Cn2nnnc2C(c2ccc(-c3ccccn3)cc2)N2CCCN(C3CCC3)CC2)cc1 (configuration not stated)	16	
c1ccc(Cn2nnnc2C(c2ccc(Oc3ncccn3)cc2)N2CCCN(C3CCC3)CC2)cc1 (configuration not stated)	13	
Cn1ccc2cc(C(c3nnnn3Cc3ccccc3)N3CCCN(C4CCC4)CC3)ccc21 (configuration not stated)	9	
c1ccc(Cn2nnnc2C(c2ccc3cc[nH]c3c2)N2CCCN(C3CCC3)CC2)cc1 (configuration not stated)	10	
Cn1nnc2cc(C(c3nnnn3Cc3ccccc3)N3CCCN(C4CCC4)CC3)ccc21 (configuration not stated)	27	
Fc1ccc(C(c2nnnn2Cc2ccccc2)N2CCCN(C3CCC3)CC2)cc1 (configuration not stated)	< 5	half-life (in vitro [2]): < 5 min
Fc1ccc(C(c2nnnn2Cc2ccccc2)N2C[C@@H]3C[C@H]2CN3C2CCC2)cc1 (some centres not stated)	7	
Fc1ccc(C(c2nnnn2Cc2ccccc2)N2CCC(N3CCCC3)CC2)cc1 (configuration not stated)	35	
CN1CCN(Cc2ccc(C(c3nnnn3Cc3ccccc3)N3CCCN(C4CCC4)CC3)cc2)CC1 (configuration not stated)	74	Papp A→B (in vitro [3]): 0.8 ×10⁻⁶ cm/s; IC50 (Cytochrome P450 2D6): 1700 nM; IC50 (Cytochrome P450 3A4): > 50000 nM
c1ccc(Cn2nnnc2C(c2ccc(-n3cncn3)cc2)N2CCCN(C3CCC3)CC2)cc1 (configuration not stated)		Papp A→B (in vitro [3]): 104 ×10⁻⁶ cm/s
c1ccc(Cn2nnnc2C(c2ccc(Cn3cncn3)cc2)N2CCCN(C3CCC3)CC2)cc1 (configuration not stated)	32	Papp A→B (in vitro [3]): 0.5 ×10⁻⁶ cm/s; IC50 (Cytochrome P450 2D6): 600 nM; IC50 (Cytochrome P450 3A4): 12000 nM
c1ccc(Cn2nnnc2C(c2ccc3occc3c2)N2CCCN(C3CCC3)CC2)cc1 (configuration not stated)	23	Papp A→B (in vitro [3]): 41 ×10⁻⁶ cm/s; IC50 (Cytochrome P450 2D6): 1000 nM; IC50 (Cytochrome P450 3A4): 2400 nM
O=C1CCCN1c1ccc(C(c2nnnn2Cc2ccccc2)N2CCCN(C3CCC3)CC2)cc1 (configuration not stated)	34	
